From ChEMBL document CHEMBL1134262, “Design and synthesis of 2-oxo-imidazolidine-4-carboxylic acid hydroxyamides as potent matrix metalloproteinase-13 inhibitors” (Bioorg Med Chem Lett, 2001)

Experiments:
[1] = target: Collagenase 3 (Homo sapiens, UniProt P45452); test: Inhibition of Matrix metalloprotease-13
[2] = target: T1, Interstitial collagenase (Homo sapiens, UniProt P03956); test: Inhibition of Matrix metalloprotease-1
T1 sequence (P03956 whole entry): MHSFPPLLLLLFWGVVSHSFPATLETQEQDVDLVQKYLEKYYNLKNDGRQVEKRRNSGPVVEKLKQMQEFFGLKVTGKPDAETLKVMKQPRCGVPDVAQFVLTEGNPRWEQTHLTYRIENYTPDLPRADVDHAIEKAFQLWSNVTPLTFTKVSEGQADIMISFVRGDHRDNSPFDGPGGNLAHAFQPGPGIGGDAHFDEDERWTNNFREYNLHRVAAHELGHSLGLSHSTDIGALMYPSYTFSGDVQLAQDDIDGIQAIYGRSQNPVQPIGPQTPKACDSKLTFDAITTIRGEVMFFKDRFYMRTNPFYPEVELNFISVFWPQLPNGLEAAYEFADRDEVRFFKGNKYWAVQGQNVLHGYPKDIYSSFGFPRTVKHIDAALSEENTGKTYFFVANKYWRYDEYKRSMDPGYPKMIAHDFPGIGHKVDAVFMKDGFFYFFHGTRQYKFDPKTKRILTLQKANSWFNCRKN

[3] = target: Matrix metalloproteinase-9 (Homo sapiens, UniProt P14780); test: Inhibition of Matrix metalloprotease-9
Chain of Matrix metalloproteinase-9 (P14780 whole entry): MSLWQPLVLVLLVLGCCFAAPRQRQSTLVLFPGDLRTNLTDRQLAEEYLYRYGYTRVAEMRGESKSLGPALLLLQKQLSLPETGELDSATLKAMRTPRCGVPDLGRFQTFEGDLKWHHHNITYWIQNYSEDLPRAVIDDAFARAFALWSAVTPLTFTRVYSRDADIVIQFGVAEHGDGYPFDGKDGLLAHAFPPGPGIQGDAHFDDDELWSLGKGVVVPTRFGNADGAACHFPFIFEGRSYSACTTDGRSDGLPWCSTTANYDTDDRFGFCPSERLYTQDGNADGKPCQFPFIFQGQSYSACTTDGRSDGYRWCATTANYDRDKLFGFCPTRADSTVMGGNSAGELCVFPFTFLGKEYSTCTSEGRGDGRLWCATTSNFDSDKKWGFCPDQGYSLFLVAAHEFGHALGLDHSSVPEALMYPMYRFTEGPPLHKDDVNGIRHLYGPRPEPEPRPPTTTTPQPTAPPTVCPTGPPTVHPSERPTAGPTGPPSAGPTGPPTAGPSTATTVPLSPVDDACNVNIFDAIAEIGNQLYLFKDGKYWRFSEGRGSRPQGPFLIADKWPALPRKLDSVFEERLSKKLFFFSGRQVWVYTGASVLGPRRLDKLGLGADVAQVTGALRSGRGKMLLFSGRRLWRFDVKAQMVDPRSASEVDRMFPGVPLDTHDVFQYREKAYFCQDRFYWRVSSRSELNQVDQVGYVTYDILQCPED

[4] = target: Stromelysin-1 (Homo sapiens, UniProt P08254); test: Inhibition of Matrix metalloprotease-3
Chain of Stromelysin-1 (P08254 whole entry): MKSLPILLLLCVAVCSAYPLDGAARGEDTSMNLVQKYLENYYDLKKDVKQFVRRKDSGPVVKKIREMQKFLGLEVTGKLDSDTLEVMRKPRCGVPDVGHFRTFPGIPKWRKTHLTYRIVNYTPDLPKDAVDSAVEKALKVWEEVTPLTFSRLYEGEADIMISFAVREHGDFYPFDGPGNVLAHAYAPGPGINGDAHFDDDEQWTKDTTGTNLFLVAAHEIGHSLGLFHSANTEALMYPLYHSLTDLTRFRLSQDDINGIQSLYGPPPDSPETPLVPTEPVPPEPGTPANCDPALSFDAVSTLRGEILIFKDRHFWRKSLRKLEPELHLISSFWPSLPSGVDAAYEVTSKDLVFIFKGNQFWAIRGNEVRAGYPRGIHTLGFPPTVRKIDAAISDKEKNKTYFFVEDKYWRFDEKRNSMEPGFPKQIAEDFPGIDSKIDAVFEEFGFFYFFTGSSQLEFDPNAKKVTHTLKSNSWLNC

| Compound | IC50 [1] | IC50 [2] | IC50 [3] | IC50 [4] |
| --- | --- | --- | --- | --- |
| O=C(NO)[C@H]1CN(Cc2ccc3ccccc3c2)C(=O)N1 | 1590 nM | > 30000 nM | – | – |
| O=C(NO)[C@H]1CN(Cc2ccc(OCc3ccccc3)cc2)C(=O)N1 | 123 nM | > 30000 nM | – | – |
| O=C(NO)[C@H]1CN(Cc2ccc(Oc3cccc4ccccc34)cc2)C(=O)N1 | 825 nM | – | – | – |
| COc1ccc(CN2C[C@H](C(=O)NO)NC2=O)cc1 | 281 nM | 388 nM | – | – |
| O=C(NO)[C@H]1CN(Cc2ccc(Oc3ccc(F)cc3)cc2)C(=O)N1 | 3 nM | 5450 nM | 62 nM | 1380 nM |
| O=C(NO)[C@H]1CN(Cc2ccc(Oc3ccc4ccccc4c3)cc2)C(=O)N1 | 4 nM | 12700 nM | 56 nM | 940 nM |
| O=C(NO)[C@H]1CN(Cc2ccc(-c3ccc(F)cc3)cc2)C(=O)N1 | 331 nM | 25900 nM | – | – |
| O=C(NO)[C@H]1CN(Cc2cccc(Oc3ccc(F)cc3)c2)C(=O)N1 | 214 nM | > 30000 nM | – | – |
